The values below come from patent US9241939B2, “Combination of (a) a phosphoinositide 3-kinase inhibitor and (b) a modulator of RAS/RAF/MEK pathway” (Novartis AG, priority 2008, dated 2016).

What is called GI50 is the concentration giving 50% growth inhibition.

The structures appear in SMILES notation. Where two headings read alike, the source gives them in different places.

Assay [1] deals with Akt; p70S6K or ERK in A549 cells. In words: Western-blotting of phosphorylated Akt, p70S6K and ERK. The class given is cell-based. The note with it: incubated alone, 30 min, PD03251901 250 nM. The method, then:
FIG. 1: A549 cells were incubated either with compound A, PD03251901 (250 nM) alone or in combination for 30 min. Cells were then harvested and estimation of phosphorylated levels of either Akt; p70S6K or ERK done by regular Western-blotting.

For another assay, the system named is BN472 tumors. In words: BN472 tumor model. The class given is in vivo. The conditions noted are these: rat, weak and not significant. The method, then: FIG. 2: Rat bearing BN472 tumors were treated with the indicated compound at the indicated dose and schedule, either alone or in combination. Evolution of tumor growth were followed by callipering throughout the course of the study. *, P<0.05 (Dunnett's).
FIG. 3: Rat bearing BN472 tumors were treated with the indicated compound at the indicated dose and schedule, either alone or in combination. Evolution of body weight were followed throughout the course of the study. *, P<0.05 (Dunnett's).
In the BN472 tumor model administration of compound A at a dose of 10 mg/kg (p.o., 1q24h) or the Raf inhibitor Raf265 (at a dose of 2.5 mg/kg, po, […]) produced a weak and not significant antitumor activity (expressed as T/C) of either 83 and 76. The combination of compound A (10 mg/kg) with RAF265, however, produced a strong and statistically significant antitumor activity with a T/C of 34% (FIG. 2).

A further assay relates to A549 cells. Put plainly: standard methylene blue proliferation assay. The class given is cell-based. As to the method: The KRAS mutant NSCLC cell line was used in a standard methylene blue proliferation assay.
A549 cells were incubated with increasing amount of either compound A or PD0325901 (NVP-LBW624) alone or in combination, for 72 h and proliferation assessed with a standard methylene blue assay. The G150 were determined and CI quantified with the CalcuSyn software.

`Cn1c(=O)n(-c2ccc(C(C)(C)C#N)cc2)c2c3cc(-c4cnc5ccccc5c4)ccc3ncc21` [Compound A, 2-methyl-2-[4-(3-methyl-2-oxo-8-quinolin-3-yl-2,3-dihydro-imidazo[4,5-c]quinolin-1-yl)-phenyl]-propionitrile]: the “block of respective downstream effectors (ERK and Akt)” value in assay [1] was “do block their respective downstream effectors”. In the assay with BN472 tumors (compound A 10 mg/kg p.o. 1q24h alone), the “antitumor activity (expressed as T/C)” value came to 83. For the same molecule, the GI50 with A549 cells (A549 cells, 72 h, compound A and PD0325901 (NVP-LBW624) in combination, read-out: GI50 (in nM) in combination) came out at 4.46 nM; with A549 cells (Homo sapiens, A549, 72 h, A549 cells (KRAS mutant NSCLC), 72 h, single agent, read-out: GI50 (in nM) alone), 9.41 nM; in the assay with A549 cells (Homo sapiens, A549, 72 h, A549 cells, 72 h, compound A and PD0325901 (NVP-LBW624) in combination, read-out: GI50 (in nM) in combination), 3.2 nM. The “Combination Index (CI)” value with A549 cells (A549 cells, 72 h, compound A with PD0325901 (NVP-LBW624), CalcuSyn software) is 0.718. Also, the “times less BEZ235 required for a similar decrease in proliferation” value in the assay with A549 cells (in presence of PD0325901) was 3 times.
As for `O=C(NOC[C@H](O)CO)c1ccc(F)c(F)c1Nc1ccc(I)cc1F` [PD0325901, reference compound], in assay [1], the “block of respective downstream effectors (ERK and Akt)” value was “do block their respective downstream effectors”. Moreover, the GI50 with A549 cells (Homo sapiens, A549, 72 h, read-out: GI50 (in nM) alone) turned out to be 36.8 nM; in the assay on A549 cells (Homo sapiens, A549, 72 h, read-out: GI50 (in nM) in combination) it was 11.5 nM.
`Cn1c(Nc2ccc(C(F)(F)F)cc2)nc2cc(Oc3ccnc(-c4ncc(C(F)(F)F)[nH]4)c3)ccc21` [RAF265, reference compound]: the “antitumor activity (expressed as T/C)” value in the assay with BN472 tumors (Raf265 2.5 mg/kg po q24h alone) was 76.
